Marks after values point to notes of the source that are not given here.
Tested on: cytokines in psoriatic lesional skin
Assay: Skin tape strip biomarkers (Olink Target 96 Inflammation panel) in the phase 2b psoriasis study (Example 10)
Type: in vivo, human
Settings: for log2FCH W16_L - BL_L, CCL3 / log2FCH W16_L - BL_L, CCL4 / log2FCH W16_L - BL_L, CCL20 / log2FCH W16_L - BL_L, CSF1 / log2FCH W16_L - BL_L, CXCL1 / log2FCH W16_L - BL_L, CXCL5 / log2FCH W16_L - BL_L, CXCL6 / log2FCH W16_L - BL_L, CXCL9 / log2FCH W16_L - BL_L, CXCL10 / log2FCH W16_L - BL_L, IFNγ / log2FCH W16_L - BL_L, IL8 / log2FCH W16_L - BL_L, IL12B / log2FCH W16_L - BL_L, IL17A / log2FCH W16_L - BL_L, IL18 / log2FCH W16_L - BL_L, IL18R1 / log2FCH W16_L - BL_L, IL. 17C / log2FCH W16_L - BL_L, MMP1 / log2FCH W16_L - BL_L, TNFRSF9 / log2FCH W16_L - BL_L, TNFSF14 / log2FCH W16_L - BL_L, TNFα / log2FCH W16_L - BL_L, TRAIL: Week 16 lesional vs baseline lesional skin
Text: Skin tape strip samples were taken from lesional and non-lesional skin at baseline and lesional skin at week 16 of patients participating in the phase 2b, dose-ranging study assessing oral modified release orismilast in adults with moderate-to-severe plaque psoriasis (NCT05190419) described in Example 3. Approximately twenty consecutive stratum corneum samples were collected from the same skin site by tape stripping (D-squames; Monaderm DS100) of both lesional and non-lesional skin at baseline and lesional skin at week 16. To extract the proteins from the tapes the first ten tapes were pooled together and used for subsequent protein extraction by incubation in 800 μL of PBS containing 0.2% Triton X-100 together with a mixture of protease inhibitors and incubated overnight at 4° C. under stirring at 1400 rpm in a thermo mixer (Eppendorf). The insoluble material was removed by filtration on 0.22 μm filters by centrifugation. The protein extracts were analyzed using the Olink® technology (Target 96 Inflammation panel). Protein extracts from patients treated with placebo, 20 mg orismilast BID, and 30 mg orismilast BID as described in Example 3 were analyzed.
OLINK data was analyzed in R 2023.09.0+463 using a linear mixed effect model (OlinkAnalyse and Ime4) to estimate log 2 fold changes between Week 16 lesional skin versus baseline lesional skin and baseline lesional versus baseline non-lesional skin levels. P-values were corrected for multiple testing using the Benjamini-Hochberg method. The data was further modeled according to a weight-based dosing regimen in which data of the 20 mg Orismilast BID arm was used for patients with a bodyweight at baseline of <100 kg and combined with using data of the 30 mg Orismilast BID arm for patients ≥100 kg, respectively (named “P3DR”).

[1] = P3DR (20 mg <100 kg and 30 mg >=100 kg combined)

Compound: O=C(Cc1c(Cl)c[n+]([O-])cc1Cl)c1ccc(OC(F)F)c2c1OC1(CCS(=O)(=O)CC1)O2 [orismilast, 2-(3,5-dichloro-1-oxidopyridin-1-ium-4-yl)-1-[7-(difluoromethoxy)-1′,1′-dioxospiro[1,3-benzodioxole-2,4′-thiane]-4-yl]ethanone]
- log2FCH W16_L - BL_L, CCL3 (20 mg BID): −2.68 ***
- log2FCH W16_L - BL_L, CCL4 (20 mg BID): −2.46 ***
- log2FCH W16_L - BL_L, CCL20 (20 mg BID): −2.53 ***
- log2FCH W16_L - BL_L, CSF1 (20 mg BID): −1.35 **
- log2FCH W16_L - BL_L, CXCL1 (20 mg BID): −1.83 *
- log2FCH W16_L - BL_L, CXCL5 (20 mg BID): −1.67 **
- log2FCH W16_L - BL_L, CXCL6 (20 mg BID): −2.34 ***
- log2FCH W16_L - BL_L, CXCL9 (20 mg BID): −2.40 ***
- log2FCH W16_L - BL_L, CXCL10 (20 mg BID): −2.20 ***
- log2FCH W16_L - BL_L, IFNγ (20 mg BID): −1.21 *
- log2FCH W16_L - BL_L, IL8 (20 mg BID): −1.82 *
- log2FCH W16_L - BL_L, IL12B (20 mg BID): −2.21 **
- log2FCH W16_L - BL_L, IL17A (20 mg BID): −2.19 ***
- log2FCH W16_L - BL_L, IL18 (20 mg BID): −2.10 **
- log2FCH W16_L - BL_L, IL18R1 (20 mg BID): −1.25 **
- log2FCH W16_L - BL_L, IL. 17C (20 mg BID): −2.49 ***
- log2FCH W16_L - BL_L, MMP1 (20 mg BID): −2.41 **
- log2FCH W16_L - BL_L, TNFRSF9 (20 mg BID): −1.45 ***
- log2FCH W16_L - BL_L, TNFSF14 (20 mg BID): −1.38 *
- log2FCH W16_L - BL_L, TNFα (20 mg BID): −1.92 ***
- log2FCH W16_L - BL_L, TRAIL (20 mg BID): −1.40 **
- log2FCH W16_L - BL_L, CCL3 (30 mg BID): −3.42 ***
- log2FCH W16_L - BL_L, CCL4 (30 mg BID): −2.83 ***
- log2FCH W16_L - BL_L, CCL20 (30 mg BID): −3.36 ***
- log2FCH W16_L - BL_L, CSF1 (30 mg BID): −1.97 ***
- log2FCH W16_L - BL_L, CXCL1 (30 mg BID): −2.84 ***
- log2FCH W16_L - BL_L, CXCL5 (30 mg BID): −2.26 ***
- log2FCH W16_L - BL_L, CXCL6 (30 mg BID): −3.15 ***
- log2FCH W16_L - BL_L, CXCL9 (30 mg BID): −3.32 ***
- log2FCH W16_L - BL_L, CXCL10 (30 mg BID): −2.89 ***
- log2FCH W16_L - BL_L, IFNγ (30 mg BID): −2.02 ***
- log2FCH W16_L - BL_L, IL8 (30 mg BID): −2.76 ***
- log2FCH W16_L - BL_L, IL12B (30 mg BID): −3.38 ***
- log2FCH W16_L - BL_L, IL17A (30 mg BID): −2.66 ***
- log2FCH W16_L - BL_L, IL18 (30 mg BID): −3.46 ***
- log2FCH W16_L - BL_L, IL18R1 (30 mg BID): −1.99 ***
- log2FCH W16_L - BL_L, IL. 17C (30 mg BID): −3.39 ***
- log2FCH W16_L - BL_L, MMP1 (30 mg BID): −3.30 ***
- log2FCH W16_L - BL_L, TNFRSF9 (30 mg BID): −2.03 ***
- log2FCH W16_L - BL_L, TNFSF14 (30 mg BID): −2.23 ***
- log2FCH W16_L - BL_L, TNFα (30 mg BID): −2.48 ***
- log2FCH W16_L - BL_L, TRAIL (30 mg BID): −2.04 ***
- log2FCH W16_L - BL_L, CCL3 [1]: −3.60 ***
- log2FCH W16_L - BL_L, CCL4 [1]: −3.14 ***
- log2FCH W16_L - BL_L, CCL20 [1]: −3.22 ***
- log2FCH W16_L - BL_L, CSF1 [1]: −1.86 ***
- log2FCH W16_L - BL_L, CXCL1 [1]: −2.34 ***
- log2FCH W16_L - BL_L, CXCL5 [1]: −2.25 ***
- log2FCH W16_L - BL_L, CXCL6 [1]: −3.02 ***
- log2FCH W16_L - BL_L, CXCL9 [1]: −3.24 ***
- log2FCH W16_L - BL_L, CXCL10 [1]: −2.94 ***
- log2FCH W16_L - BL_L, IFNγ [1]: −1.91 ***
- log2FCH W16_L - BL_L, IL8 [1]: −2.42 ***
- log2FCH W16_L - BL_L, IL12B [1]: −3.09 ***
- log2FCH W16_L - BL_L, IL17A [1]: −2.66 ***
- log2FCH W16_L - BL_L, IL18 [1]: −2.96 ***
- log2FCH W16_L - BL_L, IL18R1 [1]: −1.83 ***
- log2FCH W16_L - BL_L, IL. 17C [1]: −3.20 ***
- log2FCH W16_L - BL_L, MMP1 [1]: −3.31 ***
- log2FCH W16_L - BL_L, TNFRSF9 [1]: −1.98 ***
- log2FCH W16_L - BL_L, TNFSF14 [1]: −2.08 ***
- log2FCH W16_L - BL_L, TNFα [1]: −2.50 ***
- log2FCH W16_L - BL_L, TRAIL [1]: −1.91 ***
- expression of key disease driving cytokines in psoriatic lesions (oral orismilast for 16 weeks, 20 mg BID and 30 mg BID): significantly reduced

From US12409172B2, “Dosage regimen” (UNION therapeutics A/S, priority 2023, dated 2025)
